Measured values as given in patent US5286648A, “A84575 antibiotics” (Eli Lilly and Company, priority 1991, dated 1994).
In brackets after ≈: the same amount, converted by molar mass.

Key:
Clostridium perfringens = experiment: microbe, parasite or virus in culture; assay type: cell-based; conditions: 24 h
Staphylococcus aureus = experiment: In vitro activity vs. Staphylococcus aureus strains, agar dilution, Mueller-Hinton agar (Table 6); assay type: cell-based
Clostridium difficile [1] = experiment: Susceptibility of Clostridium difficile strains, agar dilution (Table 14); assay type: cell-based; conditions: Clostridioides difficile, 24 h
Text: (§1) *MIC Determined by the AgarDilution Method, Endpoints Read After 24Hr.

[2] = test system: Staphylococcus epidermidis; experiment: In vitro activity vs. Staphylococcus epidermidis strains, agar dilution, Mueller-Hinton agar (Table 7); assay type: cell-based
[3] = test system: Peptococcus asaccharolyticus; experiment: Susceptibility of anaerobic cocci isolates, agar dilution (Table 16); assay type: cell-based; conditions: Peptoniphilus asaccharolyticus, 24 h
Streptococcus pneumoniae = experiment: In vitro activity vs. Streptococcus pneumoniae strains, agar dilution, Mueller-Hinton agar (Table 10)
Fusobacterium symbiosum = experiment: Susceptibility of anaerobic bacterial isolates, agar dilution (Table 13); assay type: cell-based; conditions: 24 h
Propionibacterium acnes = experiment: as above; assay type: cell-based; conditions: Cutibacterium acnes, 24 h
Peptococcus variabilis = experiment: Susceptibility of anaerobic cocci isolates, agar dilution (Table 16); assay type: cell-based; conditions: 24 h
Clostridium difficile [4] = experiment: Susceptibility of anaerobic bacterial isolates, agar dilution (Table 13); assay type: cell-based; conditions: Clostridioides difficile; strain 2994; 24 hr; A84575: 3 different lots
Text: as §1

[5] = test system: Peptostreptococcus anaerobium; experiment: as above; assay type: cell-based; conditions: 24 h
Hemophilus influenza = experiment: In vitro activity vs. Hemophilus influenza strains, broth dilution, Shadler broth + 5% fildes extract (Table 12); assay type: cell-based
Text: ^1 Using brothdilution method and testing the strains with Shadler
broth +5% fildes extract

Streptococcus pyogenes = experiment: In vivo activity, administered subcutaneously to mice (Table 17); conditions: sc, subcutaneous, LD challenge 464

Compound CN[C@H](CC(C)C)C(=O)N[C@H]1C(=O)N[C@@H](CC(N)=O)C(=O)N[C@H]2C(=O)N[C@H]3C(=O)N[C@H](C(=O)N[C@H](C(=O)O)c4cc(O)cc(O)c4-c4cc3ccc4O)[C@H](O)c3ccc(c(Cl)c3)Oc3cc2cc(c3O[C@@H]2O[C@H](CO)[C@@H](O)[C@H](O)[C@H]2O[C@H]2C[C@](C)(N)[C@H](O)[C@H](C)O2)Oc2ccc(cc2Cl)[C@H]1O [Vancomycin] has an MIC (Clostridium perfringens) of 1 µg/mL (≈ 0.69 µM), an MIC (Staphylococcus aureus; strain 3055) of 1 µg/mL (≈ 0.69 µM) and an MIC (Staphylococcus aureus; strain 3109) of 1 µg/mL (≈ 0.69 µM). For the same compound, the MIC (Staphylococcus aureus; strain 3110) was 0.5 µg/mL (≈ 0.345 µM), the MIC (Staphylococcus aureus; strain 3123) was 1 µg/mL (≈ 0.69 µM) and the MIC (Staphylococcus aureus; strain 3128) was 1 µg/mL (≈ 0.69 µM). It also gave an MIC (Staphylococcus aureus; strain 3131, methicillin-resistant) of 0.5 µg/mL (≈ 0.345 µM), an MIC (Staphylococcus aureus; strain 3136) of 1 µg/mL (≈ 0.69 µM) and an MIC (Staphylococcus aureus; strain 3484A, methicillin-resistant) of 1 µg/mL (≈ 0.69 µM). The MIC (Staphylococcus aureus; strain 25923) was 2 µg/mL (≈ 1.38 µM), the MIC (Staphylococcus aureus; strain #43, methicillin-resistant) was 0.5 µg/mL (≈ 0.345 µM) and the MIC (Staphylococcus aureus; strain BGB #10, methicillin-resistant) was 1 µg/mL (≈ 0.69 µM). For the same compound, the MIC (Staphylococcus aureus; strain CVT#6, methicillin-resistant) was 0.5 µg/mL (≈ 0.345 µM), the MIC (Staphylococcus aureus; strain DUTT, methicillin-resistant) was 0.5 µg/mL (≈ 0.345 µM) and the MIC (Staphylococcus aureus; strain H290) was 1 µg/mL (≈ 0.69 µM). The MIC (Staphylococcus aureus; strain H535) was 0.5 µg/mL (≈ 0.345 µM), the MIC (Staphylococcus aureus; strain ID-VI #1, methicillin-resistant) was 0.5 µg/mL (≈ 0.345 µM) and the MIC (Staphylococcus aureus; strain Seattle 973, methicillin-resistant) was 0.5 µg/mL (≈ 0.345 µM). The MIC (Staphylococcus aureus; strain V92) was 0.5 µg/mL (≈ 0.345 µM), the MIC (Clostridium difficile [1]; strain 78, A84575: 3 different lots) was 4 µg/mL (≈ 2.76 µM) and the MIC (Clostridium difficile [1]; strain 107B, A84575: 3 different lots) was 0.25 µg/mL (≈ 0.173 µM). For the same compound, the MIC (Clostridium difficile [1]; strain 111F, A84575: 3 different lots) was 1 µg/mL (≈ 0.69 µM), the MIC (Clostridium difficile [1]; strain 1153, A84575: 3 different lots) was 1 µg/mL (≈ 0.69 µM) and the MIC (Clostridium difficile [1]; strain 2634, A84575: 3 different lots) was 0.5 µg/mL (≈ 0.345 µM). It also gave an MIC (Clostridium difficile [1]; strain 3424-5B, A84575: 3 different lots) of 1 µg/mL (≈ 0.69 µM), an MIC (Clostridium difficile [1]; strain 3816, A84575: 3 different lots) of 1 µg/mL (≈ 0.69 µM) and an MIC (Clostridium difficile [1]; strain 3950D, A84575: 3 different lots) of 0.5 µg/mL (≈ 0.345 µM). The MIC (Clostridium difficile [1]; strain 6890, A84575: 3 different lots) was 0.5 µg/mL (≈ 0.345 µM), the MIC (Clostridium difficile [1]; strain 8484, A84575: 3 different lots) was 2 µg/mL (≈ 1.38 µM) and the MIC (Clostridium difficile [1]; strain A-194, A84575: 3 different lots) was 1 µg/mL (≈ 0.69 µM). The MIC (Clostridium difficile [1]; strain A-195, A84575: 3 different lots) was 0.5 µg/mL (≈ 0.345 µM), the MIC (Clostridium difficile [1]; strain A-196, A84575: 3 different lots) was 0.5 µg/mL (≈ 0.345 µM) and the MIC (Clostridium difficile [1]; strain A-279, A84575: 3 different lots) was 0.5 µg/mL (≈ 0.345 µM). For the same compound, the MIC (Clostridium difficile [1]; strain A-280, A84575: 3 different lots) was 1 µg/mL (≈ 0.69 µM), the MIC (Clostridium difficile [1]; strain A-281, A84575: 3 different lots) was 1 µg/mL (≈ 0.69 µM) and the MIC (Clostridium difficile [1]; strain WAL-2112, A84575: 3 different lots) was 1 µg/mL (≈ 0.69 µM). For the same compound, the MIC (Clostridium difficile [1]; strain WAL-3657, A84575: 3 different lots) was 2 µg/mL (≈ 1.38 µM), the MIC (Clostridium difficile [1]; strain WAL-4268, A84575: 3 different lots) was 1 µg/mL (≈ 0.69 µM) and the MIC ([2]; strain 10-S-81, methicillin-resistant) was 1 µg/mL (≈ 0.69 µM). For the same compound, the MIC ([2]; strain 1202-18) was 2 µg/mL (≈ 1.38 µM), the MIC ([2]; strain 3078) was 1 µg/mL (≈ 0.69 µM) and the MIC ([2]; strain 3079) was 2 µg/mL (≈ 1.38 µM). For the same compound, the MIC ([2]; strain 12477, methicillin-resistant) was 2 µg/mL (≈ 1.38 µM), the MIC ([2]; strain 48213) was 2 µg/mL (≈ 1.38 µM) and the MIC ([2]; strain 48989) was 1 µg/mL (≈ 0.69 µM). For the same compound, the MIC ([2]; strain 49030) was 2 µg/mL (≈ 1.38 µM), the MIC ([2]; strain 49128, methicillin-resistant) was 1 µg/mL (≈ 0.69 µM) and the MIC ([2]; strain 49536) was 1 µg/mL (≈ 0.69 µM). It also gave an MIC ([2]; strain 50766) of 1 µg/mL (≈ 0.69 µM), an MIC ([2]; strain S-3) of 2 µg/mL (≈ 1.38 µM) and an MIC ([2]; strain ST-214, methicillin-resistant) of 0.5 µg/mL (≈ 0.345 µM). The MIC ([2]; strain ST-215, methicillin-resistant) was 2 µg/mL (≈ 1.38 µM), the MIC ([2]; strain ST-216) was 1 µg/mL (≈ 0.69 µM) and the MIC ([2]; strain ST-217, methicillin-resistant) was 1 µg/mL (≈ 0.69 µM). The MIC ([2]; strain ST-220, methicillin-resistant) was 1 µg/mL (≈ 0.69 µM), the MIC ([2]; strain ST-222, methicillin-resistant) was 0.5 µg/mL (≈ 0.345 µM) and the MIC ([3]; strain 1302, A84575: 3 different lots) was 1 µg/mL (≈ 0.69 µM). The MIC ([3]; strain WAL-3218, A84575: 3 different lots) was 0.125 µg/mL (≈ 0.0863 µM), the MIC (Streptococcus pneumoniae; ATCC6301, strain ATCC 6301) was 4 µg/mL (≈ 2.76 µM) and the MIC (Streptococcus pneumoniae; strain 97P) was 0.25 µg/mL (≈ 0.173 µM). It also gave an MIC (Streptococcus pneumoniae; strain 2764) of 0.25 µg/mL (≈ 0.173 µM), an MIC (Streptococcus pneumoniae; strain BI5) of 0.5 µg/mL (≈ 0.345 µM) and an MIC (Streptococcus pneumoniae; strain BI343) of 0.25 µg/mL (≈ 0.173 µM). It also gave an MIC (Streptococcus pneumoniae; strain BI348) of 0.25 µg/mL (≈ 0.173 µM), an MIC (Streptococcus pneumoniae; strain BI374) of 4 µg/mL (≈ 2.76 µM) and an MIC (Streptococcus pneumoniae; strain BI508) of 0.5 µg/mL (≈ 0.345 µM). For the same compound, the MIC (Streptococcus pneumoniae; strain BI180351) was 0.25 µg/mL (≈ 0.173 µM), the MIC (Streptococcus pneumoniae; strain BI-492) was 0.5 µg/mL (≈ 0.345 µM) and the MIC (Streptococcus pneumoniae; strain HZ-4-2) was 0.25 µg/mL (≈ 0.173 µM). It also gave an MIC (Streptococcus pneumoniae; strain M11-1-H7) of 0.5 µg/mL (≈ 0.345 µM), an MIC (Streptococcus pneumoniae; strain M11-1-H10) of 0.25 µg/mL (≈ 0.173 µM) and an MIC (Streptococcus pneumoniae; strain M11-Z-Al) of 0.25 µg/mL (≈ 0.173 µM). It also gave an MIC (Streptococcus pneumoniae; strain Park I) of 0.5 µg/mL (≈ 0.345 µM), an MIC (Fusobacterium symbiosum) of 1 µg/mL (≈ 0.69 µM) and an MIC (Propionibacterium acnes) of 4 µg/mL (≈ 2.76 µM). The MIC (Peptococcus variabilis) was 0.125 µg/mL (≈ 0.0863 µM), the MIC (Clostridium difficile [4]) was 2 µg/mL (≈ 1.38 µM) and the MIC [5] was 1 µg/mL (≈ 0.69 µM). The MIC (Hemophilus influenza; strain Astes) was 64 µg/mL, the MIC (Hemophilus influenza; strain Bond) was 64 µg/mL and the MIC (Hemophilus influenza; strain Bruno) was 128 µg/mL. For the same compound, the MIC (Hemophilus influenza; strain Harper) was 64 µg/mL, the MIC (Hemophilus influenza; strain Johnson) was 64 µg/mL and the MIC (Hemophilus influenza; strain Lassig) was 32 µg/mL. For the same compound, the MIC (Hemophilus influenza; strain Lawrence) was 64 µg/mL, the MIC (Hemophilus influenza; strain Newton) was 64 µg/mL and the ED50 (Streptococcus pyogenes) was 0.72 mg/kg.
